{"source": "PubChem BioAssay AID1963982", "about": "(Molecular Pharmacology Branch, DTP, NCI, 2024);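 further: spheroids exposed to compounds for seven days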;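 on viability, T/C: 100% = DMSO vehicle control viability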", "system": "313798-341-R-J2-PDC spheroids, viability", "assay": "Anticancer human tumor 313798-341-R-J2-PDC patient-derived cervical squamous cell carcinoma cell line growth inhibition [PI3K]", "conditions": "spheroids with HUVEC and MSC; for IC50: curve of first compound; for viability, T/C: stronger effect = lower value", "summary_of_the_method": "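Three cell types, namely tumor cells, endothelial cells and mesenchymal stem cells, formed each spheroid. Combinations with four PI3K inhibitors were screened at clinically achievable concentrations decreasing by half-log, and spheroid viability was recorded.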", "key": {"[1]": {"conditions": "second compound 0.00316 µM, first compound 0.0316 µM"}, "[2]": {"conditions": "second compound 0.00316 µM, first compound 0.1 µM"}, "[3]": {"conditions": "second compound 0.00316 µM, first compound 0.316 µM"}, "[4]": {"conditions": "second compound 0.00316 µM, first compound 1 µM"}, "[5]": {"conditions": "second compound 0.00316 µM, first compound 3.16 µM"}, "[6]": {"conditions": "second compound 0.00316 µM, first compound 10 µM"}, "[7]": {"conditions": "second compound 0.01 µM, first compound 0.0316 µM"}, "[8]": {"conditions": "second compound 0.01 µM, first compound 0.1 µM"}, "[9]": {"conditions": "second compound 0.01 µM, first compound 0.316 µM"}, "[10]": {"conditions": "second compound 0.01 µM, first compound 1 µM"}, "[11]": {"conditions": "second compound 0.01 µM, first compound 3.16 µM"}, "[12]": {"conditions": "second compound 0.01 µM, first compound 10 µM"}, "[13]": {"conditions": "second compound 0.0316 µM, first compound 0.0316 µM"}, "[14]": {"conditions": "second compound 0.0316 µM, first compound 0.1 µM"}, "[15]": {"conditions": "second compound 0.0316 µM, first compound 0.316 µM"}, "[16]": {"conditions": "second compound 0.0316 µM, first compound 1 µM"}, "[17]": {"conditions": "second compound 0.0316 µM, first compound 3.16 µM"}, "[18]": {"conditions": "second compound 0.0316 µM, first compound 10 µM"}, "[19]": {"conditions": "second compound 0.1 µM, first compound 0.0316 µM"}, "[20]": {"conditions": "second compound 0.1 µM, first compound 0.1 µM"}, "[21]": {"conditions": "second compound 0.1 µM, first compound 0.316 µM"}, "[22]": {"conditions": "second compound 0.1 µM, first compound 1 µM"}, "[23]": {"conditions": "second compound 0.1 µM, first compound 3.16 µM"}, "[24]": {"conditions": "second compound 0.1 µM, first compound 10 µM"}, "[25]": {"conditions": "second compound 0.316 µM, first compound 0.0316 µM"}, "[26]": {"conditions": "second compound 0.316 µM, first compound 0.1 µM"}, "[27]": {"conditions": "second compound 0.316 µM, first compound 0.316 µM"}, "[28]": {"conditions": "second compound 0.316 µM, first compound 1 µM"}, "[29]": {"conditions": "second compound 0.316 µM, first compound 3.16 µM"}, "[30]": {"conditions": "second compound 0.316 µM, first compound 10 µM"}, "[31]": {"conditions": "second compound 1 µM, first compound 0.0316 µM"}, "[32]": {"conditions": "second compound 1 µM, first compound 0.1 µM"}, "[33]": {"conditions": "second compound 1 µM, first compound 0.316 µM"}, "[34]": {"conditions": "second compound 1 µM, first compound 1 µM"}, "[35]": {"conditions": "second compound 1 µM, first compound 3.16 µM"}, "[36]": {"conditions": "second compound 1 µM, first compound 10 µM"}}, "data": [{"smiles": "CC1(C)CCC(Nc2ncc(C(F)(F)F)c(-c3c[nH]c4c(P(C)(C)=O)c(C#N)ccc34)n2)CN1", "note": "(centres undefined) + CC(Nc1ccc2c(c1)OCCn1cc(N3C(=O)OCC3C(F)F)nc1-2)C(N)=O", "values": [{"measurement": "IC50", "setting": "second compound 0.00316 µM", "result": 31.6, "unit": "nM"}, {"measurement": "IC50", "setting": "second compound 0.01 µM", "result": "< 31.6", "unit": "nM"}, {"measurement": "IC50", "setting": "second compound 0.0316 µM", "result": "< 31.6", "unit": "nM"}, {"measurement": "IC50", "setting": "second compound 0.1 µM", "result": "< 31.6", "unit": "nM"}, {"measurement": "IC50", "setting": "second compound 0.316 µM", "result": "< 31.6", "unit": "nM"}, {"measurement": "IC50", "setting": "second compound 1 µM", "result": "< 31.6", "unit": "nM"}, {"measurement": "viability, T/C", "setting": "[1]", "result": 53.1, "unit": "%"}, {"measurement": "viability, T/C", "setting": "[2]", "result": 45.8, "unit": "%"}, {"measurement": "viability, T/C", "setting": "[3]", "result": 42.4, "unit": "%"}, {"measurement": "viability, T/C", "setting": "[4]", "result": 48.7, "unit": "%"}, {"measurement": "viability, T/C", "setting": "[5]", "result": 51.6, "unit": "%"}, {"measurement": "viability, T/C", "setting": "[6]", "result": 29.3, "unit": "%"}, {"measurement": "viability, T/C", "setting": "[7]", "result": 49.6, "unit": "%"}, {"measurement": "viability, T/C", "setting": "[8]", "result": 47.2, "unit": "%"}, {"measurement": "viability, T/C", "setting": "[9]", "result": 46.1, "unit": "%"}, {"measurement": "viability, T/C", "setting": "[10]", "result": 44.1, "unit": "%"}, {"measurement": "viability, T/C", "setting": "[11]", "result": 49.4, "unit": "%"}, {"measurement": "viability, T/C", "setting": "[12]", "result": 25.4, "unit": "%"}, {"measurement": "viability, T/C", "setting": "[13]", "result": 45, "unit": "%"}, {"measurement": "viability, T/C", "setting": "[14]", "result": 40.9, "unit": "%"}, {"measurement": "viability, T/C", "setting": "[15]", "result": 37.9, "unit": "%"}, {"measurement": "viability, T/C", "setting": "[16]", "result": 38.6, "unit": "%"}, {"measurement": "viability, T/C", "setting": "[17]", "result": 41, "unit": "%"}, {"measurement": "viability, T/C", "setting": "[18]", "result": 29.1, "unit": "%"}, {"measurement": "viability, T/C", "setting": "[19]", "result": 36.7, "unit": "%"}, {"measurement": "viability, T/C", "setting": "[20]", "result": 31.6, "unit": "%"}, {"measurement": "viability, T/C", "setting": "[21]", "result": 31.1, "unit": "%"}, {"measurement": "viability, T/C", "setting": "[22]", "result": 31.7, "unit": "%"}, {"measurement": "viability, T/C", "setting": "[23]", "result": 30.9, "unit": "%"}, {"measurement": "viability, T/C", "setting": "[24]", "result": 14.8, "unit": "%"}, {"measurement": "viability, T/C", "setting": "[25]", "result": 26.4, "unit": "%"}, {"measurement": "viability, T/C", "setting": "[26]", "result": 25.3, "unit": "%"}, {"measurement": "viability, T/C", "setting": "[27]", "result": 24.9, "unit": "%"}, {"measurement": "viability, T/C", "setting": "[28]", "result": 23.1, "unit": "%"}, {"measurement": "viability, T/C", "setting": "[29]", "result": 29.3, "unit": "%"}, {"measurement": "viability, T/C", "setting": "[30]", "result": 8.87, "unit": "%"}, {"measurement": "viability, T/C", "setting": "[31]", "result": 21.1, "unit": "%"}, {"measurement": "viability, T/C", "setting": "[32]", "result": 20.6, "unit": "%"}, {"measurement": "viability, T/C", "setting": "[33]", "result": 21.5, "unit": "%"}, {"measurement": "viability, T/C", "setting": "[34]", "result": 21.9, "unit": "%"}, {"measurement": "viability, T/C", "setting": "[35]", "result": 23.9, "unit": "%"}, {"measurement": "viability, T/C", "setting": "[36]", "result": 3.07, "unit": "%"}]}, {"smiles": "CC1(C)CCC(CN2CCN(c3ccc(C(=O)NS(=O)(=O)c4ccc(NCC5CCOCC5)c([N+](=O)[O-])c4)c(Oc4cnc5[nH]ccc5c4)c3)CC2)=C(c2ccc(Cl)cc2)C1", "note": "+ COc1c(OCCCN2CCOCC2)ccc2c3n(c(=NC(=O)c4cnc(N)nc4)nc12)CCN3", "values": [{"measurement": "IC50", "setting": "second compound 0.00316 µM", "result": "> 10000", "unit": "nM"}, {"measurement": "IC50", "setting": "second compound 0.01 µM", "result": "> 10000", "unit": "nM"}, {"measurement": "IC50", "setting": "second compound 0.0316 µM", "result": "> 10000", "unit": "nM"}, {"measurement": "IC50", "setting": "second compound 0.1 µM", "result": "< 31.6", "unit": "nM"}, {"measurement": "IC50", "setting": "second compound 0.316 µM", "result": "< 31.6", "unit": "nM"}, {"measurement": "IC50", "setting": "second compound 1 µM", "result": "< 31.6", "unit": "nM"}, {"measurement": "viability, T/C", "setting": "[1]", "result": 98.3, "unit": "%"}, {"measurement": "viability, T/C", "setting": "[2]", "result": 107, "unit": "%"}, {"measurement": "viability, T/C", "setting": "[3]", "result": 113, "unit": "%"}, {"measurement": "viability, T/C", "setting": "[4]", "result": 101, "unit": "%"}, {"measurement": "viability, T/C", "setting": "[5]", "result": 87.7, "unit": "%"}, {"measurement": "viability, T/C", "setting": "[6]", "result": 102, "unit": "%"}, {"measurement": "viability, T/C", "setting": "[7]", "result": 105, "unit": "%"}, {"measurement": "viability, T/C", "setting": "[8]", "result": 110, "unit": "%"}, {"measurement": "viability, T/C", "setting": "[9]", "result": 88.7, "unit": "%"}, {"measurement": "viability, T/C", "setting": "[10]", "result": 96.5, "unit": "%"}, {"measurement": "viability, T/C", "setting": "[11]", "result": 66.1, "unit": "%"}, {"measurement": "viability, T/C", "setting": "[12]", "result": 95.2, "unit": "%"}, {"measurement": "viability, T/C", "setting": "[13]", "result": 70, "unit": "%"}, {"measurement": "viability, T/C", "setting": "[14]", "result": 77.1, "unit": "%"}, {"measurement": "viability, T/C", "setting": "[15]", "result": 69.3, "unit": "%"}, {"measurement": "viability, T/C", "setting": "[16]", "result": 75.8, "unit": "%"}, {"measurement": "viability, T/C", "setting": "[17]", "result": 47.4, "unit": "%"}, {"measurement": "viability, T/C", "setting": "[18]", "result": 73.2, "unit": "%"}, {"measurement": "viability, T/C", "setting": "[19]", "result": 44.4, "unit": "%"}, {"measurement": "viability, T/C", "setting": "[20]", "result": 41.4, "unit": "%"}, {"measurement": "viability, T/C", "setting": "[21]", "result": 40.3, "unit": "%"}, {"measurement": "viability, T/C", "setting": "[22]", "result": 37.8, "unit": "%"}, {"measurement": "viability, T/C", "setting": "[23]", "result": 35.1, "unit": "%"}, {"measurement": "viability, T/C", "setting": "[24]", "result": 41.2, "unit": "%"}, {"measurement": "viability, T/C", "setting": "[25]", "result": 14.6, "unit": "%"}, {"measurement": "viability, T/C", "setting": "[26]", "result": 14.6, "unit": "%"}, {"measurement": "viability, T/C", "setting": "[27]", "result": 16.5, "unit": "%"}, {"measurement": "viability, T/C", "setting": "[28]", "result": 14.2, "unit": "%"}, {"measurement": "viability, T/C", "setting": "[29]", "result": 13.3, "unit": "%"}, {"measurement": "viability, T/C", "setting": "[30]", "result": 15, "unit": "%"}, {"measurement": "viability, T/C", "setting": "[31]", "result": 9.63, "unit": "%"}, {"measurement": "viability, T/C", "setting": "[32]", "result": 9.06, "unit": "%"}, {"measurement": "viability, T/C", "setting": "[33]", "result": 11.1, "unit": "%"}, {"measurement": "viability, T/C", "setting": "[34]", "result": 10.6, "unit": "%"}, {"measurement": "viability, T/C", "setting": "[35]", "result": 12, "unit": "%"}, {"measurement": "viability, T/C", "setting": "[36]", "result": 11.2, "unit": "%"}]}]}
